Measurements taken from ChEMBL document CHEMBL4507268 (2021).

Key:
[1] = molecular target: D(2) dopamine receptor (Homo sapiens) (UniProt P14416); conditions: Compound concentration 10.0 uM
[2] = molecular target: T1, NUAK family SNF1-like kinase 2 (Homo sapiens) (UniProt Q9H093); conditions: Compound concentration 1.0 uM
T1 sequence (whole entry): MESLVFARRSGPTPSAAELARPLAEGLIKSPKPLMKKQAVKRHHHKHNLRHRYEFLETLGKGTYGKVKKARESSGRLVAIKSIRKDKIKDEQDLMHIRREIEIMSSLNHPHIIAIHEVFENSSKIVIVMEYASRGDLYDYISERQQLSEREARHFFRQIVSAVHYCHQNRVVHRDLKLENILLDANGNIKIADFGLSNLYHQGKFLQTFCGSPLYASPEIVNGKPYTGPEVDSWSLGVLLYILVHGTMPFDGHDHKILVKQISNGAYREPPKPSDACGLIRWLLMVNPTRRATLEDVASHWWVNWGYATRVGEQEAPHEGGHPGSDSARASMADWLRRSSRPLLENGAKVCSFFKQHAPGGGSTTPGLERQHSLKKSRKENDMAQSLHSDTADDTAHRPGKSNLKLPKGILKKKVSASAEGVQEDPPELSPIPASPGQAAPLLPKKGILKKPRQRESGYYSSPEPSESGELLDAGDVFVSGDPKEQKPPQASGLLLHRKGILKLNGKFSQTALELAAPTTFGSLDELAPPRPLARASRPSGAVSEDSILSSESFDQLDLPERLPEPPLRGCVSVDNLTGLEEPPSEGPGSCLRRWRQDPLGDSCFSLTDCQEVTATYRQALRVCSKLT

[3] = molecular target: 5-hydroxytryptamine receptor 2C (Homo sapiens) (UniProt P28335); conditions: Compound concentration 10.0 uM
Sequence of 5-hydroxytryptamine receptor 2C (Homo sapiens) (P28335 whole entry): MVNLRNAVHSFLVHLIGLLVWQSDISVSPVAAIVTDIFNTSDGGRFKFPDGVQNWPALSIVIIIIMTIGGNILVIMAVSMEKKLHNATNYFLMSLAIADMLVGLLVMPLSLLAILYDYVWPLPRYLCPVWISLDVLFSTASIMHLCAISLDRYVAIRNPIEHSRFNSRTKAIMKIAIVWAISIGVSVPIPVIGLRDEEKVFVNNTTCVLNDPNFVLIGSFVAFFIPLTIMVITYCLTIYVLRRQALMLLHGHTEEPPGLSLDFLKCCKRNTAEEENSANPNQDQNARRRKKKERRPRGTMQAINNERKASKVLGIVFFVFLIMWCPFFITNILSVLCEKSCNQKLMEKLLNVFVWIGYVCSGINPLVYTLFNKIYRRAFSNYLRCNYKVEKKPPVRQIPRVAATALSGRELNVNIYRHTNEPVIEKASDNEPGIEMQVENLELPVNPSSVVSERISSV

[4] = molecular target: Tyrosine-protein kinase Lck (Homo sapiens) (UniProt P06239); conditions: Compound concentration 1.0 uM
[5] = molecular target: Receptor tyrosine-protein kinase erbB-2 (Homo sapiens) (UniProt P04626); conditions: Compound concentration 1.0 uM
Sequence of Receptor tyrosine-protein kinase erbB-2 (Homo sapiens) (P04626 whole entry): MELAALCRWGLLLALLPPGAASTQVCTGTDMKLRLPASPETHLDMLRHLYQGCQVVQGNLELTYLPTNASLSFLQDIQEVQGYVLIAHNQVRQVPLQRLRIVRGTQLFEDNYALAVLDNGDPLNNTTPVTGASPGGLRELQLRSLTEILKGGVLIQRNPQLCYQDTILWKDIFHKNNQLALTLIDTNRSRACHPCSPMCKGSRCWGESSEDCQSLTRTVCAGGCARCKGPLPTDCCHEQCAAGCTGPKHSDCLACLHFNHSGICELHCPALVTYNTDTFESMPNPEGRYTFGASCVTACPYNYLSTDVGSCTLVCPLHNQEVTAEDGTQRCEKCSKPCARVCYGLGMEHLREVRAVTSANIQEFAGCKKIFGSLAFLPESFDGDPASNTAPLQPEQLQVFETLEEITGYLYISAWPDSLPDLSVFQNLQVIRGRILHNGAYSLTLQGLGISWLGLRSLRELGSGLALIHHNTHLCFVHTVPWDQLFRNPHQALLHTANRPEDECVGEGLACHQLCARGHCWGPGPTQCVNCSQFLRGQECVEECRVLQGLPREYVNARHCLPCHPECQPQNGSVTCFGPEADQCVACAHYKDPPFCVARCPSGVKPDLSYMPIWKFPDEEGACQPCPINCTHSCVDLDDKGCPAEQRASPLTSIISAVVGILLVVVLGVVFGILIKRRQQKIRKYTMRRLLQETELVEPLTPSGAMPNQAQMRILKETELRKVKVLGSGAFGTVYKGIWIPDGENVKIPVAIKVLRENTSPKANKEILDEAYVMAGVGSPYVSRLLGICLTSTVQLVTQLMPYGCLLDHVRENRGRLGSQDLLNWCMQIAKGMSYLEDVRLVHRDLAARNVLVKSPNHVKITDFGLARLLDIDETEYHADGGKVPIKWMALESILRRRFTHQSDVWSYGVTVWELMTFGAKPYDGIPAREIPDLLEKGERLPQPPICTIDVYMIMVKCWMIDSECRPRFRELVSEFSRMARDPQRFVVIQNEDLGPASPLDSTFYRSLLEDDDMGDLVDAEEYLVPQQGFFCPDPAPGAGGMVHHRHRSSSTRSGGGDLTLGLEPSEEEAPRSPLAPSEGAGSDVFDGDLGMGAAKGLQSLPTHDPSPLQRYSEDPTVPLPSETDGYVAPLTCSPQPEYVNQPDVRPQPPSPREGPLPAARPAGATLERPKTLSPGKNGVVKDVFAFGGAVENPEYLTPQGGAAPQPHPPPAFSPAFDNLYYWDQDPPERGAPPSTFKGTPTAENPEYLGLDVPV

[6] = molecular target: Wee1-like protein kinase 2 (Homo sapiens) (UniProt P0C1S8); conditions: Compound concentration 1.0 uM
[7] = molecular target: Serine/threonine-protein kinase PAK 4 (Homo sapiens) (UniProt O96013); conditions: Compound concentration 1.0 uM
Sequence of Serine/threonine-protein kinase PAK 4 (Homo sapiens) (O96013 whole entry, looked up): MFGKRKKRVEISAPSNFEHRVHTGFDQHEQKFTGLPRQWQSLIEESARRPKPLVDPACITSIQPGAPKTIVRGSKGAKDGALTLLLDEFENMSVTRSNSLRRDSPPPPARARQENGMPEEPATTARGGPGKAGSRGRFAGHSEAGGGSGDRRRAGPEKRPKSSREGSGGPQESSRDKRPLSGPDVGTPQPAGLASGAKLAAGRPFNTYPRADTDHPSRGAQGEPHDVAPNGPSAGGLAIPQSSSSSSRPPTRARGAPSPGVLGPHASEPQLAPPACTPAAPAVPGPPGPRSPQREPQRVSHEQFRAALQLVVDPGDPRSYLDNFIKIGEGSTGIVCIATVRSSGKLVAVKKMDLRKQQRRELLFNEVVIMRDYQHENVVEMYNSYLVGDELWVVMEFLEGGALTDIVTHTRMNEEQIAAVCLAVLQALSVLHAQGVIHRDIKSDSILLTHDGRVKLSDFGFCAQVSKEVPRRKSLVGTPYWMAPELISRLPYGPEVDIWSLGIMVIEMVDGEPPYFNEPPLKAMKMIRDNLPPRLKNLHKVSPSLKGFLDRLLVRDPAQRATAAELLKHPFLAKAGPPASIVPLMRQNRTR

[8] = molecular target: eIF-2-alpha kinase GCN2 (Homo sapiens) (UniProt Q9P2K8); conditions: Compound concentration 1.0 uM
[9] = molecular target: Homeodomain-interacting protein kinase 1 (Homo sapiens) (UniProt Q86Z02); conditions: Compound concentration 1.0 uM
Sequence of Homeodomain-interacting protein kinase 1 (Homo sapiens) (Q86Z02 whole entry, looked up): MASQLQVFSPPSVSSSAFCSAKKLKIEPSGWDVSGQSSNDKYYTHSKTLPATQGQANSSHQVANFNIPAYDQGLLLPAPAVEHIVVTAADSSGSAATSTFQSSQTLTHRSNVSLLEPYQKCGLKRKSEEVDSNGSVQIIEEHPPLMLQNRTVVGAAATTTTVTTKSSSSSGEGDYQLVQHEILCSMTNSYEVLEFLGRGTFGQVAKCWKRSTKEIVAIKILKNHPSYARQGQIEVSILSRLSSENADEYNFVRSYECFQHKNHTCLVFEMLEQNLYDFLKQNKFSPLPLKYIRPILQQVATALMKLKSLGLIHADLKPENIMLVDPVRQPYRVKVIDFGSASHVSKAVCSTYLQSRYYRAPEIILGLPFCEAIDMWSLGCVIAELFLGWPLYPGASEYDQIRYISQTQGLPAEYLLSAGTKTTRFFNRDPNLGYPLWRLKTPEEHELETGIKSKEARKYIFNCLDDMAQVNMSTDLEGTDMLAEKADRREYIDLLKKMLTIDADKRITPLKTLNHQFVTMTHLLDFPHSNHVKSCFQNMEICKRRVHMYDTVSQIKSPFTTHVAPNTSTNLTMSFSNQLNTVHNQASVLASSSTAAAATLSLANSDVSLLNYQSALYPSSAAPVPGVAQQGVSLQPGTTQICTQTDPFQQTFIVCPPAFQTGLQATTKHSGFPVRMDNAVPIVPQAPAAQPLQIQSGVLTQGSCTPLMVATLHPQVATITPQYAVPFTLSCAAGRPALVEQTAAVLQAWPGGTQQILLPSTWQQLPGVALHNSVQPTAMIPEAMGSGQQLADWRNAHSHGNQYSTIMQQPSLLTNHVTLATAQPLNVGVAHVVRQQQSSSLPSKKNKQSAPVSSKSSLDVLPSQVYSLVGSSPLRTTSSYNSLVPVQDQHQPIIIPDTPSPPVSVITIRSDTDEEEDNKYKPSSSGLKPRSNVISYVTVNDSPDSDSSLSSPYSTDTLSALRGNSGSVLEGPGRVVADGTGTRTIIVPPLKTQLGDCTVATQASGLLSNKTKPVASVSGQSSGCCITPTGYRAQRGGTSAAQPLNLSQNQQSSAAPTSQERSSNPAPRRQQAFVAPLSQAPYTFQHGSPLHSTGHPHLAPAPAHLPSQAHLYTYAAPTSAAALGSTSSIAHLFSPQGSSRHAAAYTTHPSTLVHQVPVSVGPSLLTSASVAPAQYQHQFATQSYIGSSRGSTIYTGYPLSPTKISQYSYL

[10] = molecular target: Tyrosine-protein kinase Yes (Homo sapiens) (UniProt P07947); conditions: Compound concentration 1.0 uM
[11] = molecular target: T2, Tyrosine-protein kinase Tec (Homo sapiens) (UniProt P42680); conditions: Compound concentration 1.0 uM
T2 sequence (whole entry): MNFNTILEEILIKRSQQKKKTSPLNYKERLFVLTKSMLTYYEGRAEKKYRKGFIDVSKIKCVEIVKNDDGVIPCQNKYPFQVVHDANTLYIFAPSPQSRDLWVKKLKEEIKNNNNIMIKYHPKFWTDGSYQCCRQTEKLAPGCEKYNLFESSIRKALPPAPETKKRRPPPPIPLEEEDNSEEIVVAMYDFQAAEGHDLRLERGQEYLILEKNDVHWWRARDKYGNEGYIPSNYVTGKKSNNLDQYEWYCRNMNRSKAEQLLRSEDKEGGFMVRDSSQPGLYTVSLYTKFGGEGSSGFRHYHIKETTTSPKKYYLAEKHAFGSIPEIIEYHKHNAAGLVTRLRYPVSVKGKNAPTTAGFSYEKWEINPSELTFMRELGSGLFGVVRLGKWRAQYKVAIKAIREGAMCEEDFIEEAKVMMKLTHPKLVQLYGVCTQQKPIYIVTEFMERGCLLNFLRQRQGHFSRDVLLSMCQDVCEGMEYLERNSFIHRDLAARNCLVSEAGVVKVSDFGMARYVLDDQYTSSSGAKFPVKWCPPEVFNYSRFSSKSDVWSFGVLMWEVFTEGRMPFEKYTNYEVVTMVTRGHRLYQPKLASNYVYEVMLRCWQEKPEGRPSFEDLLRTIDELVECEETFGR

[12] = molecular target: Ribosomal protein S6 kinase alpha-6 (Homo sapiens) (UniProt Q9UK32); conditions: Compound concentration 1.0 uM
[13] = molecular target: cAMP-dependent protein kinase catalytic subunit alpha (Homo sapiens) (UniProt P17612); conditions: Compound concentration 1.0 uM
[14] = molecular target: T3, Serine/threonine-protein kinase D1 (Homo sapiens) (UniProt Q15139); conditions: Compound concentration 1.0 uM
T3 sequence (whole entry): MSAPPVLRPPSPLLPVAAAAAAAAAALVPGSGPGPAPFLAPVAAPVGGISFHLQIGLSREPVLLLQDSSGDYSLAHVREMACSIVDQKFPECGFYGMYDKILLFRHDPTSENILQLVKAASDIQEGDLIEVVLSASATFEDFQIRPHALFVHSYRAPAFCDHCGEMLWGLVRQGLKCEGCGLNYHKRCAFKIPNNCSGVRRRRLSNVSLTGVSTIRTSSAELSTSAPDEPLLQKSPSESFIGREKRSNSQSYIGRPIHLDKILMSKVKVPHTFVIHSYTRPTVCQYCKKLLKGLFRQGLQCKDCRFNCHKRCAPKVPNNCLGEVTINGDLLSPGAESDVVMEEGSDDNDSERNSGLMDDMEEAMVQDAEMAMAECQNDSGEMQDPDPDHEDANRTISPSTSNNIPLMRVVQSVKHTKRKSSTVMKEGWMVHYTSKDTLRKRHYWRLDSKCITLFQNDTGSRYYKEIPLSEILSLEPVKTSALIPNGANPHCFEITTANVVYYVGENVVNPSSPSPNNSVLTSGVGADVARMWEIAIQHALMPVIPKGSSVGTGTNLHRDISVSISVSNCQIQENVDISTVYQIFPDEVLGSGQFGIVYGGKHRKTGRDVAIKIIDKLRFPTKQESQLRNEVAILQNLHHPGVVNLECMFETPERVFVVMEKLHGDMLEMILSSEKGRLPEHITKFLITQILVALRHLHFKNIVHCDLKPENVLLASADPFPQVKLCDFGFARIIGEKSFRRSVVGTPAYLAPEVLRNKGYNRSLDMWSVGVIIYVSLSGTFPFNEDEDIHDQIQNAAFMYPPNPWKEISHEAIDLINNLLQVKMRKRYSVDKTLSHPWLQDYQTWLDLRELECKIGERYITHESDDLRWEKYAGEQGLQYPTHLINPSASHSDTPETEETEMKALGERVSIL

[15] = molecular target: Dual specificity tyrosine-phosphorylation-regulated kinase 3 (Homo sapiens) (UniProt O43781); conditions: Compound concentration 1.0 uM
[16] = molecular target: STE20-like serine/threonine-protein kinase (Homo sapiens) (UniProt Q9H2G2); conditions: Compound concentration 1.0 uM
Sequence of STE20-like serine/threonine-protein kinase (Homo sapiens) (Q9H2G2 whole entry, looked up): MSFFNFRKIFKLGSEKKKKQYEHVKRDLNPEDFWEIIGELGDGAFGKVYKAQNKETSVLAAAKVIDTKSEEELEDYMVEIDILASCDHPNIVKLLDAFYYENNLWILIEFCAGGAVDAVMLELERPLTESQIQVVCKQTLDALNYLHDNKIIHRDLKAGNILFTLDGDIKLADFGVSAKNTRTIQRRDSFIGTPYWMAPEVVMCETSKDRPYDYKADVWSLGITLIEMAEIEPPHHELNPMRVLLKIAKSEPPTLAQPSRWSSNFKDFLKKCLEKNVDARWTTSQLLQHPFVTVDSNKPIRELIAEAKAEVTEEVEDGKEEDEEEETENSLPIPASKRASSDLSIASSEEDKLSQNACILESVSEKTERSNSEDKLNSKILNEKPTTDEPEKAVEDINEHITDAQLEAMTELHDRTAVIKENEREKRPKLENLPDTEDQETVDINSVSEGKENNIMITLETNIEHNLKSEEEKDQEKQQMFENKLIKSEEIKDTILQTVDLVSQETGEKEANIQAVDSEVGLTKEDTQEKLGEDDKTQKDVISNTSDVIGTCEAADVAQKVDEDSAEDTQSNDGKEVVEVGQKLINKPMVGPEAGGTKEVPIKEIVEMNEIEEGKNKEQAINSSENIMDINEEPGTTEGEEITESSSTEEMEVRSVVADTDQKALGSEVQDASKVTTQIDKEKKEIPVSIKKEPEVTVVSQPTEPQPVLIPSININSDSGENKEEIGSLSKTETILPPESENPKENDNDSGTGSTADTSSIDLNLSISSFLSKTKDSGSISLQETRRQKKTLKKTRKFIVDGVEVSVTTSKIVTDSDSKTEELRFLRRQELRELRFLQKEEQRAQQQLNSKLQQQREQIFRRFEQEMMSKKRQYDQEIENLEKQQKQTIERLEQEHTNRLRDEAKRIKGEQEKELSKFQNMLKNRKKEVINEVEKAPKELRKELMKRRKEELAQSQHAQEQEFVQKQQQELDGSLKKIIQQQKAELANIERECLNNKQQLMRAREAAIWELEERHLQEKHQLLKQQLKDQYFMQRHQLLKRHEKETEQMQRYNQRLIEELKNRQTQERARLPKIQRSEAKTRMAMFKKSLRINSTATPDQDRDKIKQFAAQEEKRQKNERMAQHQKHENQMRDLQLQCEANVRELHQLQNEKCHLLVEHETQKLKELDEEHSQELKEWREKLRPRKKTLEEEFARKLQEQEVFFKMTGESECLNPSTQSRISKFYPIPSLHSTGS

Cc1nc(C2CCN(C(=O)c3ccc(OC(F)(F)F)cc3N)CC2)c2ncc(N3CCN(C)CC3)cc2n1 [BAY-693]
inactive: inhibition [1] 2.97%

CN1CCN(c2cnc3c(C4CCN(C(=O)c5ccc(OC(F)(F)F)cc5N)CC4)ncnc3c2)CC1 [BAY-885]
inactive: % residual kinase activity [2] 111% | inhibition [3] -4.77% | % residual kinase activity [4] 105% | % residual kinase activity [5] 96% | % residual kinase activity [6] 124% | % residual kinase activity [7] 101% | % residual kinase activity [8] 98% | % residual kinase activity [9] 116% | % residual kinase activity [10] 99% | % residual kinase activity [11] 112% | % residual kinase activity [12] 103% | % residual kinase activity [13] 99% | % residual kinase activity [14] 127% | % residual kinase activity [15] 103% | % residual kinase activity [16] 87%
